# Reference: patent publication US5665704A, “Receptor specific atrial natriuretic peptides” (Genentech, Inc., priority 1995, dated 1997)
# Where two headings read alike, the source gives them in different places. Bridge positions count the residues as written; N and C are the ends. Square brackets hold non-standard residues; d marks the D form. Peptide text beside a SMILES is read from it. Mpa = O=C(O)CCS
# Legend:
# [1] = biological target: T1, Human endopeptidase 24.11 (hNEP) (Homo sapiens, UniProt P08473); assay: Degradation of ANF variants by human NEP, half-life by HPLC (Example 22)
# T1 sequence (P08473 whole entry): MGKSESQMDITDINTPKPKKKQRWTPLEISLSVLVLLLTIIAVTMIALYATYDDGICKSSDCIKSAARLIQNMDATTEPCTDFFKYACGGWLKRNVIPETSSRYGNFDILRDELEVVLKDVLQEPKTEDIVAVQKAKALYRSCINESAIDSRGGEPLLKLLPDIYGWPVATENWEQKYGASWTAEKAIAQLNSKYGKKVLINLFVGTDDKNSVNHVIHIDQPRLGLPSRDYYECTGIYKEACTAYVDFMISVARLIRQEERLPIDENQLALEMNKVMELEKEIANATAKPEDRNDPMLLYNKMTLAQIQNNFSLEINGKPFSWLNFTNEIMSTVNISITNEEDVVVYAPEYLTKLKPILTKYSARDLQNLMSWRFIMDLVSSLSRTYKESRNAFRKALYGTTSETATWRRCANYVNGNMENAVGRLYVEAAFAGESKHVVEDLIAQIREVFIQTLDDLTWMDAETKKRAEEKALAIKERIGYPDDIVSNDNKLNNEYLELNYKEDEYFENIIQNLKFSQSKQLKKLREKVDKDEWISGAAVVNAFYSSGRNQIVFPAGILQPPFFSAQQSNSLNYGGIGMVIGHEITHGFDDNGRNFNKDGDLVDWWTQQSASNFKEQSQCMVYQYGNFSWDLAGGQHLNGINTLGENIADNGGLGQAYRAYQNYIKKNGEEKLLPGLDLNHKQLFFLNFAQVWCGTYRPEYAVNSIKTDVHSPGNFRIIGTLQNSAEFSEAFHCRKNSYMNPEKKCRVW
# Experimental: (§1) The half-life of various ANF variants was measured according to the following procedure.
# (§2) ANF Solution: An accurately weighed amount of ANF or variant thereof was diluted with HEPES buffer (5 ml of 1M HEPES Buffer and 0.1 ml of Tween 20 diluted to a 100 ml volume with DI water) to make a 0.5 mg/ml solution.
# (§3) hNEP/HEPES Solution: 75 μl of a 1 mg/ml solution of hNEP (see U.S. Pat. No. 4,960,700) is dissolved in 992.5 μl of HEPES buffer (as described above) and vortex mixed. The resulting mixture is stored in a silylated Eppendorf tube and periodically checked for activity against an ANF peptide standard.
# (§4) Assay conditions: 150 μl of an ANF solution in the HEPES buffer is diluted with 820 μl HEPES buffer and vortex mixed (1 sec). Careful note of the time is taken as 30 μl of the hNEP/HEPES solution is added and the solution is vortex mixed for 1 sec. and analyzed by periodic removal of constant volume aliquots by the HPLC autosampler. A 2.5 cm×50 cm, C-18 reversed-phase column (15 micron, 300Å]) was used and elution was achieved by using a shallow gradient of increasing acetonitrile. The elution conditions consisted of a 10% to 50% acetonitrile (containing 0.1% TFA) gradient at 0.5% min.^-1. The aqueous phase was 0.1% TFA in water. The peak area of the ANP peptide is recorded at these periodic intervals and a half-life is determined from these values.
# [2] = biological target: T1, Human endopeptidase 24.11 (hNEP); assay: in vitro; settings: isolated enzyme
# Experimental: as §1, §2, §3, §4
# hNPR-A = biological target: T2, hNPR-A (Homo sapiens, UniProt P16066); assay: Binding affinity for hNPR-A (competitive displacement of I^125 labeled wild-type ANF)
# T2 sequence (P16066 33-1061): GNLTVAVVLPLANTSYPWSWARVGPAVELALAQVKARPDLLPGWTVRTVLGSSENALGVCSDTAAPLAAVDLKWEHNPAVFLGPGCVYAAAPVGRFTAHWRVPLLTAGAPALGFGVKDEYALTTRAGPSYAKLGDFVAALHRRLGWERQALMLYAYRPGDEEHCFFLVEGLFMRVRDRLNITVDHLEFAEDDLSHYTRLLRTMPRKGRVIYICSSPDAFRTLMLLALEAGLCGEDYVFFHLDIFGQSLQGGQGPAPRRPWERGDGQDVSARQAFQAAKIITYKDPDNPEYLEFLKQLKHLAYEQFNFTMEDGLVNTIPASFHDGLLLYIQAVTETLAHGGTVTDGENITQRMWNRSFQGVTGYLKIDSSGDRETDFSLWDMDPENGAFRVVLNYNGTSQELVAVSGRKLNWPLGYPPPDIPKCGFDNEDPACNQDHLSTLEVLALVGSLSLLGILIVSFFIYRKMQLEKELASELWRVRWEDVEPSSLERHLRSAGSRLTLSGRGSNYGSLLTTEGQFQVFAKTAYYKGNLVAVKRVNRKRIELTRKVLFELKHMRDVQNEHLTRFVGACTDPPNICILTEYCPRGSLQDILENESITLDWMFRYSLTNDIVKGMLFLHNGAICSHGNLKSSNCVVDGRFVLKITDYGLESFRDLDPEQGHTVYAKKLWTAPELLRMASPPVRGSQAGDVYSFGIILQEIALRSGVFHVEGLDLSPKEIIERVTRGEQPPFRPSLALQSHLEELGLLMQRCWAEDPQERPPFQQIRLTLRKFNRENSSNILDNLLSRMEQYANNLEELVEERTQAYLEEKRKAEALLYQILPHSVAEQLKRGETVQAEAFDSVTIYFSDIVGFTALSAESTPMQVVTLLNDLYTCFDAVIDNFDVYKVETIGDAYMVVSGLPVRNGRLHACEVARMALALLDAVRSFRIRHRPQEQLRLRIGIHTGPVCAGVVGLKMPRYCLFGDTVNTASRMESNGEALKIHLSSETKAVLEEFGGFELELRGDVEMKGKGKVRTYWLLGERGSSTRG
# hNPR-C = biological target: T3, hNPR-C (Homo sapiens, UniProt P17342); assay: Binding affinity for clearance receptor hNPR-C
# T3 sequence (P17342 27-541): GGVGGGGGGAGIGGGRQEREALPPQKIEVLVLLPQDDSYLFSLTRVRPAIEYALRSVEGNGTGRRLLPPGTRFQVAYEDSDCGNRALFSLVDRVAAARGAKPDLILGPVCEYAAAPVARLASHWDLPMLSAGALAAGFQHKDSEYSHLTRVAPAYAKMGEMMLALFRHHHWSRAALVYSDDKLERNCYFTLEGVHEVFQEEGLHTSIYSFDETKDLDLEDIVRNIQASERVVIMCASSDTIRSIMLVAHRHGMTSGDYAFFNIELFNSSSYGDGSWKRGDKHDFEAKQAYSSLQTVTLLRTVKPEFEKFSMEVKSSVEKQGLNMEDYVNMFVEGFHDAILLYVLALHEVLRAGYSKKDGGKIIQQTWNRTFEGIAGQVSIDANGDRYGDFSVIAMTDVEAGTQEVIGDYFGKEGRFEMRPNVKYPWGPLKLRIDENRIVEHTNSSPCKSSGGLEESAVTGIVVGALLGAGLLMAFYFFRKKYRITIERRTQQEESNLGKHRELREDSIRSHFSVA
# From the text: For assay systems to measure binding of hANF and the compounds of this invention to hNPR-C see: Schank, D. B., et al., Biochem. Biophys. Res. Comm. 127:433-442 (1985); Scarborough, R. M., J. Biol. Chem. 261:12960-12964 and WO 90/01940.
smiles,measurement,setting,value
CC[C@H](C)[C@@H]1NC(=O)[C@H](CCCNC(=N)N)NC(=O)CNC(=O)CNC(=O)[C@H](Cc2ccccc2)NC(=O)[C@@H](C(C)C)NC(=O)[C@@H](NC(=O)[C@H](CO)NC(=O)[C@@H](N)CO)CSSC[C@@H](C(=O)N[C@@H](Cc2ccccc2)C(=O)N[C@@H](CCCNC(=N)N)C(=O)O)NC(=O)[C@H]([C@@H](C)CC)NC(=O)[C@H](CCCNC(=N)N)NC(=O)[C@H](CC(=O)O)NC1=O [ANF40] (H-SSC[dV]FGGRIDRICFR-OH; disulfide 3-13 (inferred); N-terminus and C-terminus assumed),half-life at 0.5 mg/ml,[1]; human,9.95 h
CC[C@H](C)[C@@H]1NC(=O)[C@H](CCCNC(=N)N)NC(=O)[C@H](CC(=O)O)NC(=O)[C@H]([C@@H](C)CC)NC(=O)[C@H](CC(=O)O)NC(=O)CNC(=O)[C@H](CCCNC(=N)N)NC(=O)[C@H](Cc2ccccc2)NC(=O)[C@@H](NC(=O)[C@H](CO)NC(=O)[C@H](CO)NC(=O)[C@H](CCCNC(=N)N)NC(=O)[C@H](CCCNC(=N)N)NC(=O)[C@H](CC(C)C)NC(=O)[C@@H](N)CO)CSSC[C@@H](C(=O)N[C@@H](CC(N)=O)C(=O)N[C@@H](CO)C(=O)N[C@@H](Cc2ccccc2)C(=O)N[C@@H](CCCNC(=N)N)C(=O)N[C@@H](Cc2ccc(O)cc2)C(=O)O)NC(=O)CNC(=O)[C@H](CC(C)C)NC(=O)CNC(=O)[C@H](CO)NC(=O)[C@H](CCC(N)=O)NC(=O)[C@H](C)NC(=O)[C@H](CCCNC(=N)N)NC1=O [ANF28] (H-SLRRSSCFRGDIDRIRAQSGLGCNSFRY-OH; disulfide 7-23),half-life at 32 nM/ml,[1]; human,9.52 h
CC[C@H](C)[C@@H]1NC(=O)[C@H](CCCNC(=N)N)NC(=O)[C@H](CC(=O)O)NC(=O)[C@H]([C@@H](C)CC)NC(=O)[C@H](CC(=O)O)NC(=O)CNC(=O)[C@@H](C)NC(=O)[C@H](Cc2ccccc2)NC(=O)CCSSC[C@@H](C(=O)N[C@@H](CC(N)=O)C(=O)N[C@@H](CO)C(=O)N[C@@H](Cc2ccccc2)C(=O)N[C@@H](CCCNC(=N)N)C(=O)N[C@@H](Cc2ccc(O)cc2)C(=O)O)NC(=O)CNC(=O)[C@H](CC(C)C)NC(=O)CNC(=O)[C@H](CO)NC(=O)[C@H](CCC(N)=O)NC(=O)[C@H](C)NC(=O)[C@H](CCCNC(=N)N)NC1=O [ANF92] ([Mpa]F[dA]GDIDRIRAQSGLGCNSFRY-OH; disulfide 1-17),half-life at 32 nM/ml,[2],1.77 h
CC[C@H](C)[C@@H]1NC(=O)[C@H](CCCNC(=N)N)NC(=O)[C@H](CC(=O)O)NC(=O)[C@H](CCSC)NC(=O)[C@@H]2CCCN2C(=O)[C@H](CCCNC(=N)N)NC(=O)[C@H](CCC(=O)O)NC(=O)[C@H](Cc2ccccc2)NC(=O)[C@@H](NC(=O)[C@H](CO)NC(=O)[C@H](CO)NC(=O)[C@H](CCCNC(=N)N)NC(=O)[C@H](CCCNC(=N)N)NC(=O)[C@H](CC(C)C)NC(=O)[C@@H](N)CO)CSSC[C@@H](C(=O)N[C@@H](CC(N)=O)C(=O)N[C@@H](CO)C(=O)N[C@@H](Cc2ccccc2)C(=O)N[C@@H](CCCNC(=N)N)C(=O)N[C@@H](Cc2ccc(O)cc2)C(=O)O)NC(=O)CNC(=O)[C@H](CC(C)C)NC(=O)CNC(=O)[C@H](CO)NC(=O)[C@H](CCC(N)=O)NC(=O)[C@H](C)NC(=O)CNC1=O [ANF51] (H-SLRRSSCFERPMDRIGAQSGLGCNSFRY-OH; disulfide 7-23),IC50,"hNPR-A; Table I, read-out: Binding Affinity IC50 (pM) hNPR-A",4550 pM
same,IC50,"hNPR-C; Table I, read-out: Binding Affinity IC50 (pM) hNPR-C",32200 pM
CC[C@H](C)[C@@H]1NC(=O)[C@H](CCCNC(=N)N)NC(=O)[C@H](CC(=O)O)NC(=O)[C@H]([C@@H](C)CC)NC(=O)[C@H](CCCNC(=N)N)NC(=O)CNC(=O)CNC(=O)[C@H](Cc2ccccc2)NC(=O)[C@@H](NC(=O)[C@H](CO)NC(=O)[C@H](CO)NC(=O)[C@H](CCCNC(=N)N)NC(=O)[C@H](CCCNC(=N)N)NC(=O)[C@H](CC(C)C)NC(=O)[C@H](CO)NC(=O)[C@H](CCCNC(=N)N)NC(=O)[C@@H]2CCCN2C(=O)[C@H](C)NC(=O)[C@@H](N)[C@@H](C)O)CSSC[C@@H](C(=O)N[C@@H](CC(N)=O)C(=O)N[C@@H](CO)C(=O)N[C@@H](Cc2ccccc2)C(=O)N[C@@H](CCCNC(=N)N)C(=O)N[C@@H](Cc2ccc(O)cc2)C(=O)O)NC(=O)CNC(=O)[C@H](CC(C)C)NC(=O)CNC(=O)[C@H](CO)NC(=O)[C@H](CCC(N)=O)NC(=O)[C@H](C)NC(=O)[C@H](CCCNC(=N)N)NC1=O [ANF23] (H-TAPRSLRRSSCFGGRIDRIRAQSGLGCNSFRY-OH; disulfide 11-27),IC50,hNPR-A,44 pM
same,IC50,hNPR-C,4190 pM
same,Half-Life,"[1]; FIG. 6: ANF variants 0.5 mg/ml, endopeptidase 11.24 (NEP) 0.225 mg/ml",12.3 h
